We go through two compounds from patent publication US20130324412A1, “N-ALKOXYAMIDES OF 6-(SUBSTITUTED PHENYL)-4-AMINOPICOLINATES AND 2-(SUBSTITUTED PHENYL)-6-AMINO-4-PYRIMIDINECARBOXYLATES AND THEIR USE AS SELECTIVE HERBICIDES FOR CROPS” (DOW AGROSCIENCES LLC, priority 2009, published 2013).

Format in all cases: in vivo
Assay [1] relates to winter oilseed rape (canola) (Brassica napus). The assay can be described thus: Postemergence herbicidal activity in oilseed rape (canola), crop. The settings on record: visual rating after 21 d, probit analysis, dose to kill or control 20 percent. Also on record: unit not given here. The method, then: (§1) Seeds of oilseed rape (canola) and the desired weed species were planted in Sun Gro MetroMix® 360 planting mixture, which typically has a pH of 6.0 to 6.8 and an organic matter content of about 30 percent, in plastic pots with a surface area of 95 cm^2. When required to ensure good germination and healthy plants, a fungicide treatment and/or other chemical or physical treatment was applied. The plants were grown for 15-28 d in a greenhouse with an approximate 15-h photoperiod which was maintained at about 23-29° C. during the day and 22-28° C. during the night. Nutrients and water were added on a regular basis and supplemental lighting was provided with overhead metal halide 1000-Watt lamps as necessary. The oilseed rape (canola) plants were utilized for testing when they reached the third or fourth true leaf stage. The weed species were utilized at the fourth true leaf stage.
A weighed amount, determined by the highest rate to be tested, of each test compound was dissolved in 4 mL of a 97:3 v/v mixture of acetone and DMSO to obtain concentrated stock solutions. […] The concentrated stock solutions obtained were diluted with 20 mL of an aqueous mixture containing acetone, water and Agri-Dex crop oil concentrate, in a 16.7:82.1:1.25 v/v ratio to obtain spray solutions containing the highest application rates. Additional application rates were obtained by serial dilution of 12 mL of the high rate solution into a solution containing 2 mL of 97:3 v/v mixture of acetone and DMSO and 10 mL of an aqueous mixture containing acetone, water and Agri-Dex crop oil concentrate, in a 16.7:82.1:1.25 v/v ratio to obtain ½×, ¼×, ⅛× and 1/16× rates of the high rate. Compound requirements are based upon a 12 mL application volume at a rate of 187 L/ha. Formulated compounds were applied to the plant material with an overhead Mandel track sprayer equipped with 8002E nozzles calibrated to deliver 187 L/ha over an application area of 0.503 m^2 at a spray height of 18 inches (43 cm) above the average plant canopy height. Control plants were sprayed in the same manner with the solvent blank.
The treated plants and control plants were placed in a greenhouse as described above and watered by sub-irrigation to prevent wash-off of the test compounds. After 21 d, the condition of the test plants as compared with that of the untreated plants was determined visually and scored on a scale of 0 to 100 percent where 0 corresponds to no injury and 100 corresponds to complete kill.
By applying the well-accepted probit analysis as described by J. Berkson in Journal of the American Statistical Society 1953, 48, 565, and by D. Finney in “Probit Analysis” Cambridge University Press (1952), the above data can be used to calculate GR20 and GR80 values, which are defined as growth reduction factors that correspond to the effective dose of herbicide required to kill or control 20 percent or 80 percent, respectively, of a target plant.

Assay [2] has as its system lambsquarters (Chenopodium album). The assay can be described thus: Postemergence herbicidal activity in corn, lambsquarters. Conditions: corn test, visual rating after 21 d, probit analysis, dose to kill or control 80 percent. The method, then: as §1, with “corn” for “oilseed rape (canola)”, “MetroMix” for “MetroMix®”, “7-21” for “15-28”, “second” for “third or fourth”, “first or second” for “fourth”
(§2) A weighed amount, determined by the highest rate to be tested, of each test compound was dissolved in 4 mL of a 97:3 v/v mixture of acetone and DMSO to obtain concentrated stock solutions. […] The concentrated stock solutions obtained were diluted with 20 mL of an aqueous mixture containing acetone, water, isopropyl alcohol, DMSO, Atplus 411F crop oil concentrate, and Triton X-155 surfactant in a 48.5:39:10:1.5:1.0:0.02 v/v ratio to obtain spray solutions containing the highest application rates. […]
(§3) The treated plants and control plants were placed in a greenhouse as described above and watered by sub-irrigation to prevent wash-off of the test compounds. After 21 d, the condition of the test plants as compared with that of the untreated plants was determined visually and scored on a scale of 0 to 100 percent where 0 corresponds to no injury and 100 corresponds to complete kill. […]

The test system of assay [3] is sicklepod (Casia obtusifolia). The assay can be described thus: Postemergence herbicidal activity in corn, sicklepod. The settings on record: corn test, visual rating after 21 d, probit analysis, dose to kill or control 80 percent. The method, then: as §1, with “corn” for “oilseed rape (canola)”, “MetroMix” for “MetroMix®”, “7-21” for “15-28”, “second” for “third or fourth”, “first or second” for “fourth”
as §2, §3

As to `CONC(=O)c1nc(-c2ccc(Cl)c(OC)c2F)cc(N)c1Cl` [Compound 2, 4-Amino-3-chloro-6-(4-chloro-2-fluoro-3-methoxyphenyl)-N-methoxypicolinamide], the “BRSNW GR20” value in assay [1] is given as above 70. Moreover, the “CHEAL GR80” value in assay [2] is below 4 g ai/ha. For the same compound, in assay [3], the “CASOB GR80” value was determined as 17 g ai/ha.

On to `COc1c(Cl)ccc(-c2cc(N)c(Cl)c(C(=O)NOCC(C)C)n2)c1F` [Compound 1, 4-amino-3-chloro-6-(4-chloro-2-fluoro-3-methoxyphenyl)-N-(2-methylpropoxy)picolinamide], for which, in assay [1], the “BRSNW GR20” value is recorded as above 70. Moreover, in assay [2], the “CHEAL GR80” value is below 4 g ai/ha. Also, in assay [3], the “CASOB GR80” value is listed as 8.75 g ai/ha.
